Reference: patent publication US8535902B2, “Peptidase substrates” (bioMërieux, S.A., priority 2009, dated 2013)

Tests used:
Assay in all cases: Peptidase detection on Columbia medium with substrate, spot inoculation
Type in all cases: cell-based
[1] = system: Bacillus subtilis NCTC 9 372; settings: 40 mg substrate in 400 ml Columbia medium; 24 hours at 37° C.; visual reading
Procedure: (§1) A weight of 40 mg of substrate was dissolved in 4 ml of dimethyl sulfoxide and added to 400 ml of previously autoclaved Columbia medium. The medium was distributed into Petri dishes 90 mm in diameter, in a proportion of 20 ml per dish. Seventeen strains of microorganisms stemming from collections and belonging to various species of bacteria and yeasts are inoculated in spots of approximately 10 000 colony-forming units. The media are incubated for 24 hours at 37° C., and then the colonies formed are examined visually.

[2] = system: Candida albicans ATCC 90 028; settings: 40 mg substrate in 400 ml Columbia medium; 24 hours at 37° C.; visual reading
Procedure: as §1

[3] = system: Candida glabrata NCPF 3 943; settings: 40 mg substrate in 400 ml Columbia medium; 24 hours at 37° C.; visual reading
Procedure: as §1

[4] = system: Enterobacter cloacae NCTC 11 936; settings: 40 mg substrate in 400 ml Columbia medium, 24 hours at 37° C., visual reading
Procedure: as §1

[5] = system: Enterococcus faecalis NCTC 775; settings: 40 mg substrate in 400 ml Columbia medium, 24 hours at 37° C., visual reading
Procedure: as §1

[6] = system: Enterococcus faecium NCTC 7 171; settings: 40 mg substrate in 400 ml Columbia medium; 24 hours at 37° C.; visual reading
Procedure: as §1

[7] = system: Escherichia coli NCTC 10 418; settings: 40 mg substrate in 400 ml Columbia medium, 24 hours at 37° C., visual reading
Procedure: as §1

[8] = system: Listeria monocytogenes NCTC 11 994; settings: 40 mg substrate in 400 ml Columbia medium; 24 hours at 37° C.; visual reading
Procedure: as §1

[9] = system: Providencia rettgeri NCTC 7 475; settings: 40 mg substrate in 400 ml Columbia medium; 24 hours at 37° C.; visual reading
Procedure: as §1

[10] = system: Pseudomonas aeruginosa NCTC 10 662; settings: 40 mg substrate in 400 ml Columbia medium; 24 hours at 37° C.; visual reading
Procedure: as §1

[11] = system: Salmonella typhimurium NCTC 74; settings: 40 mg substrate in 400 ml Columbia medium; 24 hours at 37° C.; visual reading
Procedure: as §1

[12] = system: Serratia marcescens NCTC 10 211; settings: 40 mg substrate in 400 ml Columbia medium, 24 hours at 37° C., visual reading
Procedure: as §1

[13] = system: Staphylococcus aureus NCTC 11 939; settings: 40 mg substrate in 400 ml Columbia medium; 24 hours at 37° C.; visual reading
Procedure: as §1

[14] = system: Staphylococcus aureus NCTC 6 571; settings: 40 mg substrate in 400 ml Columbia medium; 24 hours at 37° C.; visual reading
Procedure: as §1

[15] = system: Staphylococcus epidermidis NCTC 11 047; settings: 40 mg substrate in 400 ml Columbia medium; 24 hours at 37° C.; visual reading
Procedure: as §1

[16] = system: Streptococcus pyogenes NCTC 8 306; settings: 40 mg substrate in 400 ml Columbia medium; 24 hours at 37° C.; visual reading
Procedure: as §1

[17] = system: Yersinia enterocolitica NCTC 11 176; settings: 40 mg substrate in 400 ml Columbia medium; 24 hours at 37° C.; visual reading
Procedure: as §1

## Glycyl-2-(4′-aminostyryl)-N-methyl-benzothiazolinium iodide [Gly-ASBM^+]
[1]
  Growth: 2
[2]
  Growth: 1
[3]
  Growth: 0.5
[4]
  Growth: 2
[4]; colony color
  Color: Pale
[5]
  Growth: 1
[5]; colony color
  Color: Pale
[6]
  Growth: 1
[7]
  Growth: 2
[7]; colony color
  Color: Pale
[8]
  Growth: 1
[9]
  Growth: 2
[10]
  Growth: 2
[11]
  Growth: 2
[12]
  Growth: 2
[12]; colony color
  Color: Orange
[13]
  Growth: 1
[14]
  Growth: 2
[15]
  Growth: 1
[16]
  Growth: 1
[17]
  Growth: 2
